BindingDB's records for doi:10.1016/S0006-291X(02)00356-X (Katholieke Universiteit Leuven, 2002)

Target: T1, Promotilin (Homo sapiens, UniProt P12872)
T1 sequence (P12872 whole entry): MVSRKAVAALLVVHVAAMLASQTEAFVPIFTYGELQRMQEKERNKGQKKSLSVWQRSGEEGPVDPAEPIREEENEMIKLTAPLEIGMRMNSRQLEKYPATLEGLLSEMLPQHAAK

**Q.** Which Ki does the source give for “H-FVPIFTYGELQRLQEKERN-NH2 [[leu13]pMOT(1-19)]” here?
**A.** Its Ki is 0.00098 µM.

**Q.** Which Ki does the source give for H-FVPIFTYGE-NH2 [[leu13]pMOT(1-9)] here?
**A.** The Ki was 4.07 µM.

**Q.** For H-FVPIFTY-NH2 [[leu13]pMOT(1-7)], which Ki is on record?
**A.** The Ki was 6.92 µM.

**Q.** “H-FVPIFTYGALQRLQ-NH2 [[ala9,leu13]pMOT(1-14)]” was tested. Which Ki did it give?
**A.** The Ki was 0.0759 µM.

**Q.** With “H-FVPAFTYGELQRLQ-NH2 [[ala4,leu13]pMOT(1-14)]” as the molecule, how does the Ki read?
**A.** Its Ki is 2.57 µM.

**Q.** With “H-FVPIFTYAELQRLQ-NH2 [[ala8,leu13]pMOT(1-14)]” as the molecule, how does the Ki read?
**A.** The Ki was 0.0363 µM.

**Q.** How did the Ki turn out when “H-FVPIFTYGELQRAQ-NH2 [[ala13,leu13]pMOT(1-14)]” was run?
**A.** Its Ki is 0.00724 µM.

**Q.** How did the Ki turn out when “H-FVPIFAYGELQRLQ-NH2 [[ala6,leu13]pMOT(1-14)]” was run?
**A.** Its Ki is 0.0468 µM.

**Q.** With `CC[C@H]1OC(=O)[C@H](C)[C@@H](O[C@H]2C[C@@](C)(OC)[C@@H](O)[C@H](C)O2)[C@H](C)[C@@H](O[C@@H]2O[C@H](C)C[C@H](N(C)CC)[C@H]2O)[C@](C)(O)C[C@@H](C)C(=O)[C@H](C)[C@@H](O)[C@]1(C)O` [N-ethyl, N-Methyl Erythromycin-A] as the molecule, how does the Ki read?
**A.** The Ki was 0.24 µM.

**Q.** “H-FVPIFTYGELQRLA-NH2 [[ala14,leu13]pMOT(1-14)]” was tested. Which Ki did it give?
**A.** The Ki was 0.00708 µM.

**Q.** Which Ki does the source give for “H-FVPIFTAGELQRLQ-NH2 [[ala7,leu13]pMOT(1-14)]” here?
**A.** Its Ki is 1.45 µM.

**Q.** For “H-FVPIATYGELQRLQ-NH2 [[ala5,leu13]pMOT(1-14)]”, which Ki is on record?
**A.** The Ki was 0.0288 µM.

**Q.** Which Ki does the source give for “H-FVPIFTYGELQRLQEKERNKGQ-OH [[leu13]pMOT(1-22)]” here?
**A.** Its Ki is 0.001 µM.

**Q.** For H-FVPIFTYGELQ-NH2 [[leu13]pMOT(1-11)], which Ki is on record?
**A.** The Ki was 0.0891 µM.

**Q.** For `CC[C@H](C)[C@H](NC(=O)[C@@H]1CCCN1C(=O)[C@@H](NC(=O)[C@@H](N)Cc1ccccc1)C(C)C)C(=O)N[C@@H](Cc1ccccc1)C(=O)N[C@H](C(=O)N[C@@H](Cc1ccc(O)cc1)C(=O)NCC(=O)N[C@@H](CCC(=O)O)C(=O)N[C@@H](CC(C)C)C(=O)N[C@@H](CCC(N)=O)C(=O)N[C@@H](CCCN=C(N)N)C(=O)N[C@@H](CC(C)C)C(=O)N[C@@H](CCC(N)=O)C(=O)N[C@@H](CCC(=O)O)C(=O)N[C@@H](CCCCN)C(N)=O)[C@@H](C)O` [[leu13]pMOT(1-16)], which Ki is on record?
**A.** The Ki was 0.00214 µM.

**Q.** Which Ki does the source give for `CC[C@H]1OC(=O)[C@H](C)[C@@H](O[C@H]2C[C@@](C)(OC)[C@@H](O)[C@H](C)O2)[C@H](C)[C@@H](O[C@@H]2O[C@H](C)C[C@H](N(C)CC)[C@H]2O)[C@@]2(C)CC(C)=C(O2)[C@H](C)[C@@H](O)[C@]1(C)O` [N-ethyl, N-methyl Erythromycin-A enol ether] here?
**A.** The Ki was 0.00603 µM.

**Q.** Which Ki does the source give for “H-FVPIFTYGEAQRLQ-NH2 [[ala10,leu13]pMOT(1-14)]” here?
**A.** Its Ki is 0.00501 µM.

**Q.** Which Ki does the source give for “H-FVAIFTYGELQRLQ-NH2 [[ala3,leu13]pMOT(1-14)]” here?
**A.** Its Ki is 0.00132 µM.

**Q.** For “H-FVPIFTYGELARLQ-NH2 [[ala11,leu13]pMOT(1-14)]”, which Ki is on record?
**A.** The Ki was 0.00457 µM.

**Q.** How did the Ki turn out when “H-FVPIFTYGELQALQ-NH2 [[ala12,leu13]pMOT(1-14)]” was run?
**A.** The Ki was 0.00631 µM.

**Q.** Which Ki does the source give for `CC[C@H]1OC(=O)[C@H](C)[C@@H](O[C@H]2C[C@@](C)(OC)[C@@H](O)[C@H](C)O2)[C@H](C)[C@@H](O[C@@H]2O[C@H](C)C[C@H](N(C)C)[C@H]2O)[C@](C)(O)C[C@@H](C)C(=O)[C@H](C)[C@@H](O)[C@H]1C` [Erythromycin-B] here?
**A.** Its Ki is 0.145 µM.

**Q.** `CC[C@H]1OC(=O)[C@H](C)[C@@H](O[C@H]2C[C@@](C)(OC)[C@@H](O)[C@H](C)O2)[C@H](C)[C@@H](O[C@@H]2O[C@H](C)C[C@H](N(C)C)[C@H]2O)[C@@]2(C)CC(C)=C(O2)[C@H](C)[C@@H](O)[C@]1(C)O` [Erythromycin-A enol ether] was tested. Which Ki did it give?
**A.** The Ki was 0.00832 µM.

**Q.** For `CC[C@H]1OC(=O)[C@H](C)[C@@H](O[C@H]2C[C@@](C)(OC)[C@@H](O)[C@H](C)O2)[C@H](C)[C@@H](O[C@@H]2O[C@H](C)C[C@H](N(C)C)[C@H]2O)C2(C)CC(C)=C(O2)[C@H](C)[C@@H](O)[C@H]1C` (some centres undefined) [Erythromycin-B enol ether], which Ki is on record?
**A.** Its Ki is 0.00759 µM.

**Q.** With H-FVPIF-NH2 [[leu13]pMOT(1-5)] as the molecule, how does the Ki read?
**A.** Its Ki is 8.91 µM.
